Measured values from ChEMBL document CHEMBL1151629, “Lariciresinol derivatives from Turrea nilotica and Monechma ciliatum” (1984).

System: KB
Assay: Cytotoxicity against human KB cells
Type: functional
Conditions: read-out: ED50 (the source's name)

## COc1cc(C[C@H]2CO[C@H](c3ccc(OC)c(OC)c3)[C@H]2CO)ccc1O
  EC50: > 10 µg/mL
